Assay results as given in PubChem BioAssay (NCI).
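How tested: cells in 96-well plates exposed to compound for 48 hours at five concentrations. The concentration for full growth arrest is given as TGI.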 Where a SMILES comes first, the peptide text is derived from it. Bridges are numbered along the chain shown (N, C = ends). [ ]: non-standard residue; d: D form. The star is where a group is joined. Phe(4-NO2) = N[CH](Cc1ccc([N+](=O)[O-])cc1)C(=O)O; Cbz = O=C(OCc1ccccc1)*; PhAc = O=C(Cc1ccccc1)*

Columns and labels:
Assay in all cases: inhibition of tumour cell growth, NCI panel, 48 h
[1] = system: SF-295 CNS
[2] = system: RXF 393 renal
[3] = system: A549 NSCLC
[4] = system: K-562 leukemia
[5] = system: HCT-15 colon
[6] = system: MALME-3M melanoma
[7] = system: NCI-H522 lung
[8] = system: UACC-62 melanoma
[9] = system: OVCAR-3 ovarian
[10] = system: HCT-116 colon
[11] = system: M14 melanoma
[12] = system: CCRF-CEM leukemia
[13] = system: UACC-257 melanoma
[14] = system: BT-549 breast
[15] = system: RPMI-8226 leukemia
[16] = system: SK-MEL-28 melanoma
[17] = system: SNB-75 CNS
[18] = system: NCI-H460 lung
[19] = system: SW-620 colon
[20] = system: HL-60(TB) leukemia

Row | SMILES | TGI [1] [µM] | TGI [2] [µM] | TGI [3] [µM] | TGI [4] [µM] | TGI [5] [µM] | TGI [6] [µM] | TGI [7] [µM] | TGI [8] [µM] | TGI [9] [µM] | TGI [10] [µM] | TGI [11] [µM] | TGI [12] [µM] | TGI [13] [µM] | TGI [14] [µM] | TGI [15] [µM] | TGI [16] [µM] | TGI [17] [µM] | TGI [18] [µM] | TGI [19] [µM] | TGI [20] [µM]
1 | CC1(C)Oc2ccc3c(=O)c(-c4ccccc4)c(-c4ccccc4)oc3c2C1C(=O)O (centres undefined) | > 100 | > 100 | > 100 | > 100 | > 100 | > 100 | > 100 | > 100 | > 100 | > 100 | > 100 | > 100 | > 100 | > 100 |  |  |  |  |  | 
2 | Cc1cc2nc3c(C#N)c(-c4ccccc4)/c(=C\Nc4ccc(Cl)cc4)c(=O)n3c2cc1C | > 100 | > 100 | > 100 |  | > 100 | > 100 | > 100 |  | > 100 | > 100 | > 100 | > 100 | > 100 | > 100 | > 100 | > 100 | > 100 | > 100 | > 100 | 
3 | O=c1c(-c2c(-c3ccccc3)oc3ccc(Cl)cc3c2=O)c(-c2ccccc2)oc2ccc(Cl)cc12 | > 79.4 | > 100 | > 100 | > 100 | > 100 | > 100 | > 100 | > 100 | > 100 | > 100 | > 100 | > 100 | > 100 |  | > 100 | > 100 | > 62.2 | > 100 | > 100 | 0.606
4 | NC1OC(COC(=O)c2ccccc2)C(O)C(OC(=O)c2ccccc2)C1OC(=O)c1ccccc1 (centres undefined) | 33.6 | 31.3 | 48 |  | > 100 | 36.3 | 58.5 | 29.4 | 75.5 | 34.2 | 58.1 |  | 47.2 | 40.6 | > 100 | 42.7 | 39.8 | 27.9 | 53.6 | 
5 | CCOC(=O)[C@@H]1OC(c2ccccc2)O[C@H]1C(=O)OCC | > 100 |  | > 100 | > 100 | > 100 | > 100 |  | > 100 | > 100 | > 100 | > 100 | > 100 | > 100 |  | > 100 | > 100 | > 100 |  | > 100 | 
6 | CCC(=O)C1(N2CCOCC2)CCN(CCCC(=O)c2ccc(F)cc2)CC1 | > 100 | > 100 | > 100 | > 100 | > 100 | > 100 | > 100 | > 100 | > 100 | > 100 | > 100 | > 100 |  |  | > 100 | > 100 | > 100 | > 100 | > 100 | > 100
7 | O=C(Nc1cc2c(=O)[nH]c3ccccc3c2oc1=O)c1cnccn1 | > 100 | > 100 | > 100 | > 100 | > 100 | > 100 | > 100 | > 100 | > 100 | > 100 | > 100 | > 100 | > 100 | > 100 |  | > 100 | > 100 | > 100 | > 100 | 
8 | COc1ccc(/C=N/n2c(=O)[nH]c3ccccc3c2=O)cc1 | > 100 |  | > 100 | > 100 | > 100 |  |  | > 100 | > 100 | > 100 | > 100 | > 100 | > 100 | > 100 | > 100 | > 100 | > 100 | > 100 | > 100 | 
9 | O=C(CSc1nnc(Cc2ccccc2)o1)Nc1cccc(Cl)c1 | > 100 | > 100 | > 100 | > 100 | > 100 | > 100 | > 100 |  | > 100 | > 100 | > 100 | > 100 | > 100 |  | > 100 | > 100 | 89.5 | > 100 | > 100 | > 100
10 | CCCCOCn1c(=O)[nH]c(=O)c2ccccc21 | > 100 | > 100 | > 100 | > 100 | > 100 |  |  | > 100 | > 100 | > 100 | > 100 | > 100 | > 100 |  |  | > 100 | 82.9 | > 100 | > 100 | > 100
11 | CC1=C(C)CC(C#N)(C#N)C(C#N)(C#N)C1 | > 10 | > 6.09 | > 10 | 9.98 | > 10 | > 10 | > 2.72 | > 10 | 9.68 | > 7.32 | > 10 | > 10 | > 10 |  | > 6.71 | > 10 | > 10 | > 10 | > 5.42 | > 5
12 | C=C[C@]1(O)CCC[C@]2(C)C(=O)CCC12C (some centres undefined) | > 100 | > 100 | > 100 | > 100 | > 100 | > 100 | > 100 | > 100 | > 100 | > 100 | > 100 |  | > 100 |  | > 100 | > 100 |  | > 100 | > 100 | > 100
13 | O=C(/C=C/c1ccc(O)c(O)c1)OCc1ccccc1 | 57.4 | 65.4 | 62.1 | 61 | > 100 | 80.4 | 7.77 | 53.9 | > 100 | 30.5 | 48.2 |  | 59.1 |  | 32.2 | 61.3 |  | > 100 | > 100 | 4.66
14 | CCOC(=O)CCC(NC(=O)OCc1ccccc1)C(=O)NC(CCC(=O)OCC)C(=O)NC(Cc1ccc([N+](=O)[O-])cc1)C(=O)NC(CCC(=O)OCC)C(=O)NC(CCC(=O)OCC)C(=O)OCC (centres undefined) (Cbz-E(OEt)E(OEt)[Phe(4-NO2)]E(OEt)E(OEt)-OEt; configuration not given here) | > 100 | > 100 | > 100 |  | > 100 | > 100 | > 100 | > 100 |  | > 100 |  | > 100 | > 100 | > 100 | > 100 | > 100 | > 100 | > 100 | > 100 | 
15 | O=C(Cc1ccccc1)N[C@@H]1COC(=O)[C@@H]2CCCN2C(=O)[C@@H]2CCCN2C1=O (PhAc-[dS]-Pro-Pro; ester 1-C) | > 100 | > 100 | > 100 |  | > 100 | > 100 |  | > 100 | > 100 | > 100 | > 100 | > 100 | > 100 |  |  | > 100 |  | > 100 | > 100 | > 100
16 | CN(C)C(=S)N1C(=S)N(c2ccccc2)C(=Nc2ccccc2)C1=Nc1ccccc1 | > 100 | > 100 | > 100 | > 100 | > 100 | > 100 | > 100 | > 100 |  | > 100 |  | > 100 | > 100 |  | > 100 | > 100 | > 100 | > 100 | > 100 | > 100
17 | CC1(C)C=Cc2c(cc3oc4ccc5c(c4c(=O)c3c2O)C=CC(C)(C)O5)O1 | > 100 | > 100 | > 100 |  | > 100 | > 100 | > 100 | > 100 | > 100 | > 100 | > 100 | > 100 | > 100 | > 100 | > 100 | > 100 |  |  | > 100 | 
18 | CCCCCN1CCN(c2ncccn2)CC1 | > 100 | > 100 | > 100 | > 100 | > 100 | > 100 | > 100 | > 100 | > 100 | > 100 | > 100 | > 100 | > 100 |  | > 100 | > 100 | > 100 |  | > 100 | > 100
19 | O=C1Oc2ccccc2C(=O)/C1=C/N1C(=O)/C(=C/c2ccc3c(c2)OCO3)SC1=S | 35 | 40.2 | 35.4 | 35.7 | 33.2 | 44.8 | 45.2 | > 47.7 | 10.9 | > 51.2 | 31.9 | > 61.3 | 51.5 |  | 38.3 | 36.8 | 19.2 | 32.4 | 43.5 | > 64.4
20 | Cc1nnc2sc(Cl)nn12 | 36.2 |  | 72.8 | 72.9 | 45.6 | 85.6 | 23.9 | 18.9 | 33.6 | 26.2 | 28.1 | 26.4 |  | 46.7 | > 100 | 34.2 | > 100 | 37.4 | 16.6 | 
21 | O=c1[nH]c(=O)n(C2OC(CO)C(O)C2O)c2ncc(-c3ccc(-c4ccccc4)cc3)nc12 (centres undefined) | > 20 | > 20 | > 20 | > 20 | > 20 | > 20 | > 20 | > 20 |  | > 20 |  | > 20 | > 20 | > 20 | > 20 |  | > 20 | > 20 | > 20 | 
22 | CC1(C)C(C#N)=[N+]([O-])C(C)(C)N1O | > 100 | > 100 | > 100 | > 100 | > 100 | > 100 |  | > 100 | > 100 | > 100 | > 100 | > 100 | > 100 |  | > 100 | > 100 | > 100 | > 100 | > 100 | 73.4
23 | Cn1c2c(c3ccccc31)CCN1OCC=C[C@@H](C(=O)O)[C@@H]21 |  | > 100 | > 100 |  | > 100 | > 100 | > 100 | > 100 | > 100 | > 100 | > 100 |  | > 100 |  |  | > 100 | > 100 | > 100 | > 100 | > 100
24 | Cc1ccc(/C=N/Nc2nc3ccccc3s2)s1 | > 100 | > 100 | > 100 | > 100 | > 100 | > 100 | > 100 | > 100 | > 100 | > 100 | > 100 | > 100 | > 100 |  | > 100 | > 100 | > 100 |  | > 100 | > 100
25 | Cc1ccc2nc(N/N=C/c3ccc(C)s3)cc(C)c2c1 | 21.1 | 28.3 | 21.1 | > 100 | 15.3 | 32 | 18.9 | 23.6 | 17.4 | 12.3 | 23.3 |  | 19.9 |  | 56.6 | 28.9 |  |  | 29.4 | 
26 | CCN1CCN(c2nc3ccccc3nc2C(=O)c2ccc(OC)cc2)CC1 | > 100 | 43.5 | > 100 | > 100 | > 100 | 62.2 | > 100 | 45 | > 100 | 36.7 | 37.3 |  | 35.3 |  | 43.7 | > 100 | > 100 | > 100 | > 100 | > 100
